In brackets after ≈: the same amount, converted by molar mass. Read-outs that look alike come from different tables or passages of the source.
Legend:
[1] = In vitro stability in plasma, microsomes and hepatocytes; type: in vitro ADME; conditions: liver microsomes and hepatocytes
Description: Bioanalytical data analyses were carried out using Analyst software (version 1.4.1, Applied Biosystems, Toronto, ON, Canada). […] PK parameters were determined by noncompartmental analysis using WinNonLin. Plasma protein binding was determined using equilibrium dialysis. In vitro stability was determined using commercially available plasma, microsomes and hepatocytes.

[2] = test system: 5 major human cytochrome P450 isoforms (CYPs); test: Inhibition of cytochrome P450 isoforms in vitro; type: in vitro ADME
[3] = test system: A. baumannii (AB); test: MIC, broth microdilution, Brooklyn hospital isolates: A. baumannii; type: cell-based
Description: (§1) In another study, the activity of Compound 1 against a collection of contemporary Gram-negative bacteria was determined. Unique patient isolates of P. aeruginosa (PA), A. baumannii (AB), K. pneumoniae (KP), E. coli (EC), and Enterobacter spp. (EB) from prior surveys at 16 Brooklyn, N.Y. hospitals were selected based on resistance patterns. The majority of isolates were fingerprinted by automated ribotyping. MICs were performed by broth microdilution. PCR was used to identify aminoglycoside-modifying enzymes (AMEs) in AB and KP and the KPC gene in Enterobacteriaceae (EN). The expression of the efflux genes mexA, C, E and X in PA, and adeB in AB was assessed by real-time RT-PCR.

[4] = test system: E. coli (EC); test: MIC, broth microdilution, Brooklyn hospital isolates: E. coli; type: cell-based; conditions: Escherichia coli; EC (n = 32)
Description: as §1

[5] = First-in-human phase 1 study: plasma pharmacokinetics of Compound 1; type: in vivo; conditions: for AUC(0-inf) / Cmax / clearance / half-life: both sexes, human, plasma, intravenous, human plasma, single dose
Text: The initial, first-in-human (FIH) phase 1 study was a double-blind, randomized, placebo-controlled, parallel-group, single- and multiple-dose-escalation study to assess the safety, tolerability, and pharmacokinetics of Compound 1 administered IV to healthy adult volunteers. In addition, the design of this FIH phase 1 study provided rationale and support for dosing for the proposed phase 2 study in patients with cUTI (see FIG. 11).
This study was designed with four escalating dose arms in both single-dose and multiple-dose phases. Compound 1 was formulated as a sterile solution at a concentration of 50 mg/mL in 10 mL glass vials for intravenous (IV) administration (“Compound 1 Injection”). To support high-dose, short-course therapy, the FIH phase 1 study investigated escalating doses with shorter durations at the higher dosages. At least 32 male and female healthy subjects (8 per Cohort) were randomized to receive a single dose of either Compound 1 Injection or placebo administered IV by 10 minute infusion in a double-blinded manner, as shown below:
Cohort 1a: 1 mg/kg Single Dose (SD) only
Cohort 1b: 4 mg/kg SD and Multiple Doses (MD) for 10 days
Cohort 2: 7 mg/kg SD and MD for 10 days
Cohort 3: 11 mg/kg SD and MD for 5 days
Cohort 4: 15 mg/kg SD and MD for 3 days
Blood and urine samples for safety laboratory tests were obtained during the screen period, before and after the single-dose, before and after the multiple-dose (additional samples were obtained during multiple-dose period depending on MD duration). Blood samples for PK analysis were obtained with the single dose and first and last multiple-doses at the following times:
5, 10, 15, 20, 30, 45, 60 minutes after the start of the infusion; and
1, 1.5, 2, 2.5 (Cohorts 3 and 4 only), 3, 4, 6, 8, 12, 16, 24, and 48 hours after the start of the infusion.
For subjects in the 10-day multiple-dose cohorts, additional blood samples for PK analysis were obtained predose on days 11, 13, and 15.

[6] = Acinetobacter baumannii, AB (n = 38)
[7] = 1 mg/kg, 24 hours, Cohort 1 a (1 mg/kg), compartmental (2) analysis, ± SE
[8] = 1 mg/kg, 48 hours, Cohort 1a (1 mg/kg), noncompartmental analysis, ± SD
[9] = 4 mg/kg, 24 hours, Cohort 1b (4 mg/kg), compartmental (2) analysis, ± SE
[10] = 4 mg/kg, 48 hours, Cohort 1b (4 mg/kg), noncompartmental analysis, ± SD
[11] = 7 mg/kg, 24 hours, Cohort 2 (7 mg/kg), compartmental (2) analysis, ± SE
[12] = 7 mg/kg, 48 hours, Cohort 2 (7 mg/kg), noncompartmental analysis, ± SD
[13] = 11 mg/kg, 24 hours, Cohort 3 (11 mg/kg), compartmental (2) analysis, ± SE
[14] = 11 mg/kg, 48 hours, Cohort 3 (11 mg/kg), noncompartmental analysis, ± SD
[15] = 15 mg/kg, 24 hours, Cohort 4 (15 mg/kg), compartmental (2) analysis, ± SE
[16] = 15 mg/kg, 48 hours, Cohort 4 (15 mg/kg), noncompartmental analysis, ± SD
[17] = healthy volunteers, 1-15 mg/kg IV 10 minute infusion

For `CN[C@@H]1[C@@H](O)[C@@H](O[C@@H]2[C@@H](O)[C@H](O[C@H]3OC(CNCCO)=CC[C@H]3N)[C@@H](N)C[C@H]2NC(=O)[C@@H](O)CCN)OC[C@]1(C)O` [Compound 1, 6′-(2-Hydroxy-ethyl)-1-(4-amino-2(S)-hydroxy-butyryl)-sisomicin], the in vitro stability [1] was “stable”, the “inhibition of the 5 major human CYPs” value [2] was “did not inhibit” and the “isolates with Compound 1 MICs >8” value ([3]; AB isolates with increased expression of adeB) was 69%. The “isolates with Compound 1 MICs>4” value ([3]; AB isolates with the AME aacA4) was 93%, the “isolates with Compound 1 MICs >8” value ([3]; AB isolates without increased expression of adeB) was 13% and the “isolates with Compound 1 MICs>4” value ([3]; AB isolates without the AME aacA4) was 50%. The MIC50 [3, 6] was 8 µg/mL (≈ 13.5 µM), the MIC90 [3, 6] was over 16 µg/mL and the MIC ([3]; Acinetobacter baumannii, AB isolates without AMEs, read-out: MICs achieved by some isolates) was over 16 µg/mL. The MIC50 [4] was 1 µg/mL (≈ 1.69 µM), the MIC90 [4] was 2 µg/mL (≈ 3.37 µM) and the “accumulation over three days” value ([5]; Cohort 4, 15 mg/kg every 24 hours for three days) was “very little, in any, accumulation”. For the same compound, the AUC(0-inf) [5, 7] was 15000 ± 1000 ng·h/mL, the Cmax [5, 7] was 8000 ± 800 ng/mL and the clearance [5, 7] was 1.13 mL/min/kg. The half-life ([5]; 1 mg/kg, 24 hours, Cohort 1 a (1 mg/kg), compartmental (2) analysis, ± SE, read-out: t1/2 alpha (converted)) was 0.5 ± 0.1 h, the half-life ([5]; 1 mg/kg, 24 hours, Cohort 1 a (1 mg/kg), compartmental (2) analysis, ± SE, read-out: t1/2 beta (converted)) was 3.5 ± 0.2 h and the AUC(0-inf) ([5]; 1 mg/kg, 48 hours, Cohort 1a (1 mg/kg)) was 14000 ± 1000 ng·h/mL. For the same compound, the Cmax [5, 8] was 7000 ± 700 ng/mL, the clearance [5, 8] was 1.23 mL/min/kg and the AUC(0-inf) [5, 9] was 65000 ± 4000 ng·h/mL. For the same compound, the Cmax [5, 9] was 38000 ± 4000 ng/mL, the clearance [5, 9] was 1.03 mL/min/kg and the half-life ([5]; 4 mg/kg, 24 hours, Cohort 1b (4 mg/kg), compartmental (2) analysis, ± SE, read-out: t1/2 alpha (converted)) was 0.3 ± 0.1 h. It also gave a half-life ([5]; 4 mg/kg, 24 hours, Cohort 1b (4 mg/kg), compartmental (2) analysis, ± SE, read-out: t1/2 beta (converted)) of 3 ± 0.1 h, an AUC(0-inf) ([5]; 4 mg/kg, 48 hours, Cohort 1b (4 mg/kg)) of 61000 ± 8000 ng·h/mL and a Cmax [5, 10] of 32000 ± 5000 ng/mL. For the same compound, the clearance [5, 10] was 1.12 mL/min/kg, the AUC(0-inf) [5, 11] was 89000 ± 4000 ng·h/mL and the Cmax [5, 11] was 40000 ± 3000 ng/mL. The clearance [5, 11] was 1.3 mL/min/kg, the half-life ([5]; 7 mg/kg, 24 hours, Cohort 2 (7 mg/kg), compartmental (2) analysis, ± SE, read-out: t1/2 alpha (converted)) was 0.7 ± 0.1 h and the half-life ([5]; 7 mg/kg, 24 hours, Cohort 2 (7 mg/kg), compartmental (2) analysis, ± SE, read-out: t1/2 beta (converted)) was 3.1 ± 0.1 h. For the same compound, the AUC(0-inf) ([5]; 7 mg/kg, 48 hours, Cohort 2 (7 mg/kg)) was 88000 ± 12000 ng·h/mL, the Cmax [5, 12] was 46000 ± 7000 ng/mL and the clearance [5, 12] was 1.35 mL/min/kg. It also gave an AUC(0-inf) [5, 13] of 186000 ± 8000 ng·h/mL, a Cmax [5, 13] of 106000 ± 10000 ng/mL and a clearance [5, 13] of 0.983 mL/min/kg. It also gave a half-life ([5]; 11 mg/kg, 24 hours, Cohort 3 (11 mg/kg), compartmental (2) analysis, ± SE, read-out: t1/2 alpha (converted)) of 0.3 ± 0.1 h, a half-life ([5]; 11 mg/kg, 24 hours, Cohort 3 (11 mg/kg), compartmental (2) analysis, ± SE, read-out: t1/2 beta (converted)) of 3.1 ± 0.1 h and an AUC(0-inf) ([5]; 11 mg/kg, 48 hours, Cohort 3 (11 mg/kg)) of 176000 ± 34000 ng·h/mL. The Cmax [5, 14] was 114000 ± 27000 ng/mL, the clearance [5, 14] was 1.08 mL/min/kg and the AUC(0-inf) [5, 15] was 250000 ± 9000 ng·h/mL. It also gave a Cmax [5, 15] of 116000 ± 8000 ng/mL, a clearance [5, 15] of 1 mL/min/kg and a half-life ([5]; 15 mg/kg, 24 hours, Cohort 4 (15 mg/kg), compartmental (2) analysis, ± SE, read-out: t1/2 alpha (converted)) of 0.8 ± 0.1 h. It also gave a half-life ([5]; 15 mg/kg, 24 hours, Cohort 4 (15 mg/kg), compartmental (2) analysis, ± SE, read-out: t1/2 beta (converted)) of 3.1 ± 0.2 h, an AUC(0-inf) ([5]; 15 mg/kg, 48 hours, Cohort 4 (15 mg/kg)) of 242000 ± 37000 ng·h/mL and a half-life ([5]; 15 mg/kg, 48 hours, Cohort 4 (15 mg/kg), compartmental (2) analysis, read-out: t½ alpha (converted)) of 3 h. The half-life ([5]; 15 mg/kg, 48 hours, Cohort 4 (15 mg/kg), compartmental (2) analysis, read-out: t½ beta (converted)) was 15 h, the Cmax [5, 16] was 144000 ± 45000 ng/mL and the clearance [5, 16] was 1.05 mL/min/kg. The “derived serum clearance rate across doses” value [5, 17] was “remained constant” and the “dose proportionality of plasma PK” value [5, 17] was “clear dose proportionality”.
